Read-outs that look alike come from different tables or passages of the source.
Assays:
[1] = rat, in vivo; cited from earlier work
[2] = cited from earlier work
[3] = in vivo; cited from earlier work
GTN-induced migraine = conditions: cited from earlier work
[4] = nasal spray, cited from earlier work
[5] = human, in vivo, inhaled or intranasal
Procedure: In this study, the fraction absorbed nasally was calculated by preventing absorption via the GI tract through the use of charcoal.

[6] = intranasal, formulations containing cyclodextrins, rabbits; cited from earlier work
allergic rhinitis = conditions: intranasal, humans; cited from earlier work

## salmon calcitonin
[1]
  Tmax, powder versus liquid formulations: no apparent difference

## elcatonin
[2]
  bio-availability in vivo, powder formulation versus liquid: greater bio-availability

## calcitonin
[3]
  absorption, liquid versus powder formulations: comparable

## CNS(=O)(=O)Cc1ccc2[nH]cc(CCN(C)C)c2c1 [sumatriptan]
GTN-induced migraine; studies by others
  time to reversal of GTN-induced excess of theta (more than 15%) after treatment: ≤ 30 min

## CN(C)CCc1c[nH]c2ccc(C[C@H]3COC(=O)N3)cc12 [zolmitriptan]
[4]; GI absorption prevented with charcoal
  fraction of nasal absorption: about 30%
[4]
  total BA: about 40%
[5]
  ratio of nasal absorption fraction to total bioavailability (BA): about 0.75

## O=[N+]([O-])OCC(CO[N+](=O)[O-])O[N+](=O)[O-] [GTN, glyceryltrinitrate]
GTN-induced migraine; GTN challenge
  subjects with a history of migraine in whom migraine is expected to be induced: 75%

## CN1C[C@H](C(=O)N[C@]2(C)O[C@@]3(O)[C@@H]4CCCN4C(=O)[C@H](Cc4ccccc4)N3C2=O)C[C@@H]2c3cccc4[nH]cc(c34)C[C@H]21 [dihydroergotamine]
[6]
  Tmax, powder versus liquid formulations: broadly comparable

## O=C(O)c1cc(=O)c2c(OCC(O)COc3cccc4oc(C(=O)O)cc(=O)c34)cccc2o1 [sodium cromoglycate]
Allergic rhinitis
  effectiveness, powder versus solution formulation: somewhat more effective

From patent publication US8875704B2, “Nasal administration” (priority 2007, dated 2014)
